Data taken from BindingDB's records for doi:10.3109/14756366.2011.637202 (Agri Ibrahim Cecen University, 2012).

Legend:
Experiment in all cases: Esterase Activity Assay
Carbonic anhydrase 1 = Carbonic anhydrase 1 (Homo sapiens, UniProt P00915)
Carbonic anhydrase 6 = Carbonic anhydrase 6 (Homo sapiens, UniProt P23280)
Carbonic anhydrase 2 = Carbonic anhydrase 2 (Homo sapiens, UniProt P00918)
Carbonic anhydrase 4 = Carbonic anhydrase 4 (Homo sapiens, UniProt P22748)
Carbonic anhydrase 4, sequence (P22748 whole entry): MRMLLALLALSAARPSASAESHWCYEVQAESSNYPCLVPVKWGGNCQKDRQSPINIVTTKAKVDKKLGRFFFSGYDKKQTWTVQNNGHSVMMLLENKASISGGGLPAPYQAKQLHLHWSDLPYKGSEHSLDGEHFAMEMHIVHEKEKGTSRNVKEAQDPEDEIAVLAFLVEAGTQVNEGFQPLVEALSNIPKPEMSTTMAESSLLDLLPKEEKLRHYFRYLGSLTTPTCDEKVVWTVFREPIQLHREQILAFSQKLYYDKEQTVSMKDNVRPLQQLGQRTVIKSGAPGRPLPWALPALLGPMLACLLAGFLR

Carbonic anhydrase 6, sequence (P23280 whole entry): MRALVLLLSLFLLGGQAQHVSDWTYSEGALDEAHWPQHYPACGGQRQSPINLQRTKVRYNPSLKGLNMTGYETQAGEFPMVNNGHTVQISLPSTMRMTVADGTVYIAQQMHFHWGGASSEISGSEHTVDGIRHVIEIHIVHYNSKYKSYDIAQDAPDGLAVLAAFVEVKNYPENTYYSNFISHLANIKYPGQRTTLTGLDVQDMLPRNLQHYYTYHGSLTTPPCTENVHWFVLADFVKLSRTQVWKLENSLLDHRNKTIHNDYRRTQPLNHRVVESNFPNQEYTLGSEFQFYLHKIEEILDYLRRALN
Carbonic anhydrase 1, sequence (P00915 whole entry): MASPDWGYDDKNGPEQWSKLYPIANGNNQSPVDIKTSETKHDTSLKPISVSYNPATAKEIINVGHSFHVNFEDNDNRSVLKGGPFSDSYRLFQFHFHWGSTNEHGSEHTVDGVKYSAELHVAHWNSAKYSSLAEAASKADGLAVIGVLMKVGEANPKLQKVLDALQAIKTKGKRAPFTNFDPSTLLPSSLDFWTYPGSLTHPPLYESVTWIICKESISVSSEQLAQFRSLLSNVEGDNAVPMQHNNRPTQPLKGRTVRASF

SMILES | Ki (Carbonic anhydrase 1) [µM] | Ki (Carbonic anhydrase 6) [µM] | Ki (Carbonic anhydrase 2) [µM] | Ki (Carbonic anhydrase 4) [µM]
CS(=O)(=O)Oc1cccc(OS(C)(=O)=O)c1OS(C)(=O)=O [Benzene-1,2,3-triyltrimethanesulfonate (11)] | 478 | 458 | 35.4 | 45.1
Oc1ccccc1 |  |  | 5.6 | 9.7
CS(=O)(=O)Oc1ccc(-c2ccccc2)cc1 [Biphenyl-4-ylmethanesulfonate (5)] | 48.5 | 162 | 12.2 | 26.5
COc1cc(C=O)ccc1OS(C)(=O)=O [4-Formyl-2-methoxyphenyl methanesulfonate (15)] | 79.1 | 12.1 | 6.45 | 8.14
Oc1ccc(-c2ccccc2)cc1 [4-Hydroxybiphenyl] | 19.5 | 85 | 7.41 | 12.3
Oc1cccc(O)c1O |  | 6.83 | 0.52 | 0.49
CS(=O)(=O)Oc1ccccc1OS(C)(=O)=O [1,2-Phenylenedimethanesulfonate (13)] | 196 | 313 | 28.5 | 41.6
CS(=O)(=O)Oc1ccccc1 [Phenylmethanesulfonate (4)] | 27.4 | 105 | 8.7 | 15.4
CS(=O)(=O)Oc1ccc(OS(C)(=O)=O)cc1 [1,4-Phenylene dimethanesulfonate (6)] | 22.1 | 28.4 | 4.23 | 9.12
COc1ccccc1O [1-Hydroxy-2-methoxybenzene] |  | 217 | 2.98 | 3.56
